Test results from PMC2699545 (Molecular genetics and metabolism, 2009).
Changes are numbered by the printed parent chain.

Columns and labels:
[1] = tested on: N370, N370D, N370E and N370S enzymes; assay: Km for DNPG; assay type: biochemical, human; conditions: same for all the mutants (Fig. 4 legend)
[2] = molecular target: T1, E235G GCase (Homo sapiens, UniProt P04062, E274G); assay: E235G hydrolysis of alternative substrates, with or without azide; assay type: biochemical; conditions: for E235G activity toward substrate compared to wild-type enzyme: TC (4.25 mM) as activator, no azide
T1 sequence (P04062 40-536 E274G): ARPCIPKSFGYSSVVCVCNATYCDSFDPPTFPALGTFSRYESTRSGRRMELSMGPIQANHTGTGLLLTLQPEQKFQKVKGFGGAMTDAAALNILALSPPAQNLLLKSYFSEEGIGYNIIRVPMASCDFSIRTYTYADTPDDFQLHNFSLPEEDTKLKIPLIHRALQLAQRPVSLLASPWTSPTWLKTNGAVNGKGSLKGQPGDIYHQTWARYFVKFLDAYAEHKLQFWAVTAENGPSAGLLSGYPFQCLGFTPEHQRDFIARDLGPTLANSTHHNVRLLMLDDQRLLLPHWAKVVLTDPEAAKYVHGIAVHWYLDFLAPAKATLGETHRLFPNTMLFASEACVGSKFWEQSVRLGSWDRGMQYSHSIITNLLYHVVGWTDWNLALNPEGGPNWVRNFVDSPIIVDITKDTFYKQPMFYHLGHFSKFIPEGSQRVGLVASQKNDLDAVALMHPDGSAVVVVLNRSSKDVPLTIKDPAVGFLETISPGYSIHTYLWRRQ

[3] = tested on: all active enzymes (wild-type and mutant GCases); assay: Km for 4MU-Glc from Lineweaver-Burk plots; assay type: biochemical, human
[4] = molecular target: wild-type GCase (Homo sapiens, UniProt P04062); conditions: azide at 1:4 molar ratio enzyme to azide; DNPG
Chain of wild-type GCase (P04062 40-536): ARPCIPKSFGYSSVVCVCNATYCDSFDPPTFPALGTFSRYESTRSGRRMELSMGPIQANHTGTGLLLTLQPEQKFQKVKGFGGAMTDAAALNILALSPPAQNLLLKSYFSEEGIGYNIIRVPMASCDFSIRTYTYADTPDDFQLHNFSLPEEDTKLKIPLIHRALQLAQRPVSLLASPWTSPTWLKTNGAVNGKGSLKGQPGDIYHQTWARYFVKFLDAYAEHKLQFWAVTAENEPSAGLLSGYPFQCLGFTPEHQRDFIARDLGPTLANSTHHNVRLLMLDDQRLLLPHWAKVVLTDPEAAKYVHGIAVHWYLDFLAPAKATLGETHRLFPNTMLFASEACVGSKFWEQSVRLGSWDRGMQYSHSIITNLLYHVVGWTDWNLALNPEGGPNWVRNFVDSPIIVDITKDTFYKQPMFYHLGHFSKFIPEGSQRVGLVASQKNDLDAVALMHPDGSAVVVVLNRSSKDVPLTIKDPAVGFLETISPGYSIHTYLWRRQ

[5] = molecular target: T2, N370 (wild-type) GCase (Homo sapiens, UniProt P04062); assay: GCase inhibition by active site-directed inhibitors, 4MU-Glc substrate; assay type: biochemical
T2 sequence (P04062 40-536): T1 sequence (P04062 40-536 E274G) with G235E

[6] = molecular target: T3, N370D GCase (Homo sapiens, UniProt P04062, N409D); assay: as above; assay type: biochemical
T3 sequence (P04062 40-536 N409D): T1 sequence (P04062 40-536 E274G) with G235E, N370D

[7] = molecular target: T4, N370S GCase (Homo sapiens, UniProt P04062, N409S); assay: as above; assay type: biochemical
T4 sequence (P04062 40-536 N409S): T1 sequence (P04062 40-536 E274G) with G235E, N370S

[8] = molecular target: T5, N370E GCase (Homo sapiens, UniProt P04062, N409E); assay: as above; assay type: biochemical
T5 sequence (P04062 40-536 N409E): T1 sequence (P04062 40-536 E274G) with G235E, N370E

[9] = molecular target: T6, N370Q GCase (Homo sapiens, UniProt P04062, N409Q); assay: as above; assay type: biochemical
T6 sequence (P04062 40-536 N409Q): T1 sequence (P04062 40-536 E274G) with G235E, N370Q

[10] = molecular target: T2, N370 (wild-type) GCase; assay: Enzyme activation by TC or saposin C
[11] = molecular target: T3, N370D GCase; assay: Enzyme activation by TC or saposin C
[12] = molecular target: T4, N370S GCase; assay: Enzyme activation by TC or saposin C
[13] = molecular target: T5, N370E GCase; assay: Enzyme activation by TC or saposin C
[14] = molecular target: T6, N370Q GCase; assay: Enzyme activation by TC or saposin C
[15] = TC 0 to 8 mM, Triton X-100 4 mM, pH 5.6
[16] = in combination with 0.5 μM BPS, pH 5.5

Molecule: O=[N+]([O-])c1ccc(O[C@@H]2O[C@H](CO)[C@@H](O)[C@H](O)[C@H]2O)c([N+](=O)[O-])c1 [DNPG, 2,4-dinitrophenyl-β-D-glucoside]
- Km [1]: 108 ± 17 µM
- E235G activity toward substrate compared to wild-type enzyme [2]: ~ 2%

Molecule: Cc1cc(=O)oc2cc(O[C@@H]3O[C@H](CO)[C@@H](O)[C@H](O)[C@H]3O)ccc12 [4MU-Glc, 4-methylumbelliferyl-β-D-glucoside]
- Km [3]: 2000 ± 500 µM
- E235G activity toward substrate compared to wild-type enzyme [2]: less than 0.05%

Molecule: [N-]=[N+]=[N-].[Na+] [azide, sodium azide]
- hydrolytic rate of 2,4-DNP-β-glucose by E235G relative to wild-type ([2]; 10 μM azide (Fig. 6A)): 95%
- hydrolytic rate of DNPG by E235G relative to wild-type enzyme ([2]; 1:4 molar ratio of enzyme to azide): ~ 90%
- effect of azide on wild-type enzyme activity [4]: no effect

Molecule: O=[N+]([O-])c1ccccc1O[C@@H]1O[C@H](CO)[C@H](O)[C@H](O)[C@H]1O [o-NPG, o-nitrophenyl-β-glucose]
- E235G activity toward substrate compared to wild-type enzyme [2]: less than 0.05%

Molecule: O=[N+]([O-])c1ccc(O[C@@H]2O[C@H](CO)[C@H](O)[C@H](O)[C@H]2O)cc1 [p-NPG, p-nitrophenyl-β-glucose]
- E235G activity toward substrate compared to wild-type enzyme [2]: less than 0.05%

Molecule: O[C@H]1[C@H](O)[C@@H](O)[C@@H]2O[C@@H]2[C@@H]1O (racemic) [Conduritol B Epoxide, conduritol B epoxide]
- IC50 [5]: 73 ± 3 µM
- IC50 [6]: 72 ± 2 µM
- IC50 [7]: 251 ± 29 µM
- IC50 [8]: 78 ± 4 µM
- IC50 [9]: 75 ± 2.5 µM

Molecule: C[C@H](CCC(=O)NCCS(=O)(=O)O)[C@H]1CC[C@H]2[C@@H]3[C@H](O)C[C@@H]4C[C@H](O)CC[C@]4(C)[C@H]3C[C@H](O)[C@]12C [TC, Sodium taurocholate]
- fold activation by TC ([10]; wild-type, TC 0 to 8 mM, Triton X-100 4 mM, pH 5.6): ~ 25 fold
- fold activation by TC [11, 15]: ~ 22 fold
- fold activation by TC ([12]; TC ≥ 4 mM, Triton X-100 4 mM, pH 5.6): ~ 35 fold
- fold activation by TC [13, 15]: ~ 8 fold
- fold activation by TC [14, 15]: ~ 1.5 fold

B1: saposin C: protein cofactor of GCase for optimal hydrolytic activity (protein, UniProt P07602 311-390, looked up)
Saposin-C: SDVYCEVCEFLVKEVTKLIDNNKTEKEILDAFDKMCSKLPKSLSEECQEVVDTYGSSILSILLEEVSPELVCSMLHLCSG
modifications: Saposin-C
- fold enhancement by saposin C ([10]; N370 (WT), in combination with 0.5 μM BPS, pH 5.5): ~ 3.5 fold
- fold enhancement by saposin C [11, 16]: 1.8 fold
- fold enhancement by saposin C [12, 16]: ~ 2.4 fold
- fold enhancement by saposin C [13, 16]: 1.8 fold
- enhancement by saposin C [14, 16]: no effect
